This note sets out measurements from US20250340543A1, “GPR84 ANTAGONISTS AND USES THEREOF” (Liminal BioSciences Limited, priority 2021, published 2025).

This assay concerns the target GPR84 (Homo sapiens (Human), UniProt Q9NQS5). Put plainly: Gai biosensor BRET assay (GPR84-mediated activation of Gai, antagonist mode against agonist ZQ-16). The class given is cell-based. The conditions noted are these: for inhibition at 10 µM: compound tested at 10 μM (concentration code D); for IC50: HEK293 cells, 200 nmol/L GPR84 agonist ZQ-16, read-out: hGPR84 IC50; for inhibition at 2 µM: compound tested at 2 μM (concentration code A). Put shortly: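 Transiently transfected HEK293 cells expressing GPR84, Gαi2-Rluc8, GFP10-Gγ2 and Gβ1, in Tyrode's buffer pH 7.5. Compounds pre-incubated 5 min at 37° C, then 200 nmol/L ZQ-16 for 5 min at room temperature; BRET² with coelenterazine 400A, ligand-promoted net BRET after background and vehicle subtraction.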

Sequence of GPR84 (Q9NQS5 whole entry): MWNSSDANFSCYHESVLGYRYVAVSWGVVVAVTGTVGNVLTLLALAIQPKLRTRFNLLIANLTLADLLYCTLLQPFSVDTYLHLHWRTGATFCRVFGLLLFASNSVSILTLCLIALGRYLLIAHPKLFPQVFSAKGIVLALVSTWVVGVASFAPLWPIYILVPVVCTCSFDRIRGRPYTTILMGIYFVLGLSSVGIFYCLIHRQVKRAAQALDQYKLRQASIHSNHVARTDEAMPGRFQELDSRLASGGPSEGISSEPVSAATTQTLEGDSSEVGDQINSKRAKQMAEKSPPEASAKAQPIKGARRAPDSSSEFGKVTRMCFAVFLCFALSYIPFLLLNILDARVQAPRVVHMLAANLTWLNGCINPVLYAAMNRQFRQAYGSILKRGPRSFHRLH

`Cc1cc(OCc2ncccn2)cc(=O)n1C(C)c1cccc(C#CC2CC2)c1` (stereo not shown) [Compound I-261] registered an inhibition at 10 µM of under 25%.
As to `Cc1cc(OCc2ncccn2)cc(=O)n1Cc1cccc(OCC(F)(F)F)c1` [Compound I-262], the inhibition at 10 µM was under 25%.
Same read-out and setting: the result for `Cc1cc(OCc2ncccn2)cc(=O)n1[C@H](C)c1ccc(C#CCNCc2ccccc2)cc1` [Compound I-263] reads under 25%; that for `Cc1cc(OCc2ncccn2)cc(=O)n1[C@H](C)c1ccc(C#CCN(C)Cc2ccccc2)cc1` [Compound I-264], 25 to 50%.
The same measure, in the same setting: the result for `Cc1cc(OCc2ncccn2)cc(=O)n1C(C)c1cc(C#CC2CC2)cs1` (stereo not shown) [Compound I-265] reads under 25%; that for `Cc1cc(OCc2ncccn2)cc(=O)n1Cc1cc(C#CC2CC2)ccn1` [Compound I-266], under 25%.
Still for that read-out and setting: as for `Cc1cc(OCc2ncccn2)cc(=O)n1Cc1cccc(C#CC2CC2)c1` [Compound I-267], the figure is under 25%.
The compound `Cc1cc(OCc2ncccn2)cc(=O)n1Cc1cc(C#CC2CC2)ccc1F` [Compound I-268] yielded an inhibition at 10 µM of under 25%.
The same measure, in the same setting: the result for `Cc1cc(OCc2ncccn2)cc(=O)n1[C@H](C)c1ccc(C#CCNC(=O)OC(C)C)cc1` [Compound I-269] reads under 25%.
Same read-out and setting: the result for `Cc1cc(OCc2ncccn2)cc(=O)n1[C@H](C)c1ccc(C#CC2CC2)cc1F` [Compound I-270] reads under 25%.
Still for that read-out and setting: as for `Cc1cc(OCc2ncccn2)cc(=O)n1Cc1cccc(N2CC(C)(C)C2)c1` [Compound I-271], the figure is under 25%.
With `Cc1cc(OCc2cccnc2)cc(=O)n1[C@H](C)c1ccc(C#CC2CC2)cc1` [Compound I-272], the IC50 was under 5 µM and the inhibition at 2 µM is over 75%.
Regarding `Cc1cc(OCc2ncccn2)cc(=O)n1C(C)c1ccc(C#CC2CC2)c(F)c1` (stereo not shown) [Compound I-273], the IC50 is under 5 µM and the inhibition at 10 µM is over 75%.
On to `Cc1cc(OCC2CCCCO2)cc(=O)n1C(C)c1ccc(OCC(F)(F)F)cc1` (stereo not shown) [Compound I-274], for which the inhibition at 10 µM is under 25%.
On to `Cc1cc(OCc2ncccn2)cc(=O)n1C(C)c1ccc(OCC(F)(F)F)cc1` (stereo not shown) [Compound I-275], for which the inhibition at 10 µM was under 25%.
Turning to `Cc1cc(OCc2ncccc2F)cc(=O)n1[C@H](C)c1ccc(C#CC2CC2)cc1` [Compound I-278], the IC50 was under 5 µM and the inhibition at 2 µM was over 75%.
For `Cc1cnc(COc2cc(C)n([C@H](C)c3ccc(C#CC4CC4)cc3)c(=O)c2)nc1` [Compound I-279], the inhibition at 10 µM is over 75%.
`Cc1cc(OCc2ncccn2)cc(=O)n1Cc1cccc(C#CCNc2ccccc2)c1` [Compound I-280]: the inhibition at 10 µM is under 25%.
For the compound `Cc1cc(OCc2cncnc2)cc(=O)n1[C@H](C)c1ccc(C#CC2CC2)cc1` [Compound I-283], the IC50 was under 5 µM and the inhibition at 2 µM is over 75%.
As to `Cc1cc(OCc2cocn2)cc(=O)n1[C@H](C)c1ccc(C#CC2CC2)cc1` [Compound I-284], the inhibition at 2 µM was over 75%.
Turning to `Cc1cc(C#CC2CC2)cnc1C(C)n1ccc(OC[C@@H]2COCCO2)cc1=O` (stereo partly shown) [Compound I-285], the inhibition at 10 µM was under 25%.
The same measure, in the same setting: as for `CC(c1cc(C#CC2CC2)ccn1)n1ccc(OC[C@@H]2COCCO2)cc1=O` (stereo partly shown) [Compound I-286], the figure is under 25%.
The same measure, in the same setting: as for `Cc1cc(OCc2ncccn2)cc(=O)n1C(C)c1ccc(C#CC2CC2)nc1` (stereo not shown) [Compound I-287], the figure is 25 to 50%; as for `Cc1cc(OCc2ncccn2)cc(=O)n1[C@H](C)c1ccc(C#CC2CC2)nc1` [Compound I-288], 25 to 50%.
As for `Cc1ccc(C#CC2CC2)cc1Cn1c(C)cc(OCc2ncccn2)cc1=O` [Compound I-289], the inhibition at 2 µM was under 25%.
Turning to `Cc1cc(OCc2ccccn2)cc(=O)n1[C@H](C)c1ccc(C#CC2CC2)cc1` [Compound I-290], the half-maximal inhibitory concentration (IC50) was under 5 µM and the inhibition at 2 µM is over 75%.
With `Cc1cc(OCc2cccnn2)cc(=O)n1[C@H](C)c1ccc(C#CC2CC2)cc1` [Compound I-291], the half-inhibitory concentration (IC50) is under 5 µM and the inhibition at 2 µM was over 75%.
`Cc1cc(OCc2ncccn2)cc(=O)n1C(C)c1ccc(C#CC2CC2)s1` (stereo not shown) [Compound I-292] gave an inhibition at 10 µM of 25 to 50%.
With `Cc1cc(OCc2nccs2)cc(=O)n1[C@H](C)c1ccc(C#CC2CC2)cc1` [Compound I-293], the half-maximal inhibitory concentration (IC50) was under 5 µM and the inhibition at 2 µM is over 75%.
As for `Cc1cc(OCc2cscn2)cc(=O)n1[C@H](C)c1ccc(C#CC2CC2)cc1` [Compound I-294], the IC50 was under 5 µM and the inhibition at 10 µM was over 75%.
On to `Cc1cc(OCn2cccn2)cc(=O)n1[C@H](C)c1ccc(C#CC2CC2)cc1` [Compound I-295], for which the inhibition at 10 µM was over 75%.
Regarding `Cc1cc(OCc2ncco2)cc(=O)n1[C@H](C)c1ccc(C#CC2CC2)cc1` [Compound I-296], the concentration for half-maximal inhibition (IC50) is under 5 µM and the inhibition at 10 µM was over 75%.
Turning to `Cc1cc(OCc2ccccc2Cl)cc(=O)n1[C@H](C)c1ccc(C#CC2CC2)cc1` [Compound I-297], the inhibition at 10 µM was under 25%.
In turn, `Cc1cc(OCc2ncccn2)cc(=O)n1[C@H](C)c1ccc(C#CC(C)C)cc1` [Compound I-298] gave an inhibition at 10 µM of 50 to 75%.
In the case of `Cc1ccc([C@@H](C)n2c(C)cc(OCc3ncccn3)cc2=O)cc1` [Compound I-299], the inhibition at 10 µM was under 25%.
Turning to `Cc1cc(OCc2ncccn2)cc(=O)n1[C@H](C)c1ccccc1` [Compound I-300], the inhibition at 10 µM is under 25%.
As for `COc1ccc([C@@H](C)n2c(C)cc(OCc3ncccn3)cc2=O)cc1` [Compound I-301], the inhibition at 10 µM is under 25%.
Turning to `Cc1cc(OCc2nccn2C)cc(=O)n1[C@H](C)c1ccc(C#CC2CC2)cc1` [Compound I-303], the IC50 was under 5 µM and the inhibition at 2 µM is over 75%.
On to `Cc1cc(OCc2ncccn2)cc(=O)n1[C@H](C)c1ccc(Cl)cc1` [Compound I-304], for which the inhibition at 10 µM was under 25%.
`Cc1cc(OCc2cccnc2Cl)cc(=O)n1[C@H](C)c1ccc(C#CC2CC2)cc1` [Compound I-305] gave an inhibition at 10 µM of over 75%.
`Cc1cc(OCc2cc(Cl)ccn2)cc(=O)n1[C@H](C)c1ccc(C#CC2CC2)cc1` [Compound I-306]: the inhibition at 10 µM is 25 to 50%.
On to `Cc1cc(OCc2ncccn2)cc(=O)n1C(C)c1ccc(Oc2ccccc2)cc1` (stereo not shown) [Compound I-307], for which the inhibition at 10 µM is under 25%.
Still for that read-out and setting: the result for `Cc1cc(OCn2ccnc2)cc(=O)n1[C@H](C)c1ccc(C#CC2CC2)cc1` [Compound I-308] reads over 75%; that for `CCCCCc1ccc([C@@H](C)n2c(C)cc(OCc3ncccn3)cc2=O)cc1` [Compound I-309], under 25%; that for `Cc1cc(OCc2ncccn2)cc(=O)n1[C@H](C)c1ccc(CCC2CC2)cc1` [Compound I-310], 25 to 50%.
With `Cc1cc(OCc2cncs2)cc(=O)n1[C@H](C)c1ccc(C#CC2CC2)cc1` [Compound I-311], the inhibition at 2 µM was over 75%.
For the compound `Cc1cc(OCc2ncccn2)cc(=O)n1C(C)c1ccc(C#CCNc2ccccc2)cc1` (stereo not shown) [Compound I-312], the inhibition at 10 µM was under 25%.
On the same count and under the same terms, as for `Cc1cc(OCc2cn(C)cn2)cc(=O)n1[C@H](C)c1ccc(C#CC2CC2)cc1` [Compound I-313], the figure is over 75%.
